Experimental findings from patent US11787762B2, “Tetralin and tetrahydroquinoline compounds as inhibitors of HIF-2alpha” (ARCUS BIOSCIENCES, INC., priority 2020, dated 2023) are described below.

A value given as a limit tells only on which side of the number the result lay.

Assay [1] concerns the target T1, Histidine tagged HIF-2α protein containing PAS-B domain (240-350) (Homo sapiens, UniProt Q99814).
T1 construct: HIF-2α protein containing PAS-B domain (240-350); made in house
Nature of the assay: HIF-2α Scintillation Proximity Assay (SPA) binding assay. To be noted: 50 nM HIF-2α protein, 25 nM 3H-tracer. Here is the method:
HIF-2α Scintillation Proximity Assay (SPA) Binding Assay:
Tritium labeled compound N-(3-chlorophenyl)-4-nitro-2,1,3-benzoxadiazol-5-amine was obtained from American Radiolabeled Chemicals Inc. and copper chelate PVT SPA beads were from PerkinElmer (Cat #RPNQ0095). Histidine tagged HIF-2α protein containing PAS-B domain (240-350) was prepared and purified in house.
Compounds solubilized in DMSO were dispensed into a white 384-well polystyrene non-binding flat clear bottom plate (Greiner Bio-One, Cat #781903) using an HP D300 dispenser. Ten microliters of HIS-tagged HIF-2α protein in buffer (25 mM Tris-HCl, pH 7.4, 150 mM NaCl, 0.15% BSA and 0.001% Tween 20) was added to the compound wells and allowed to incubate for 1 hour at room temperature. Ten microliters of SPA bead mix were added to the wells and incubated for an additional 45 minutes, followed by 10 ul of ^3H-tracer solution. Final assay conditions comprised 50 nM HIF-2α protein, 25 nM radiolabeled tracer and 3 ug beads per well with compounds in 2% DMSO. The plate was read using a MicroBeta Microplate Counter (PerkinElmer) for luminescence detection. The IC50 values of the test compounds were determined from compound dose response curves fitted using a standard four parameter fit equation and are reported in Table 1, Table 2, and Table 3.
For orientation: Scintillation proximity formats need no separation of bound from free tracer.

The target of assay [2] is T2, HIF-2α (Homo sapiens, UniProt Q99814).
T2 construct: host or cells: 786-O cells stably transduced with Cignal Lenti HIF Luc Reporter (only the reporter was introduced, not HIF-2α)
Nature of the assay: HIF-2α luciferase reporter assay in HIF-Luc-786-O cells. It counts as cell-based. The gist of the method: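 Luminescence (ONE-Glo) read after 20 h compound incubation, top concentration 50 uM, 1% DMSO, 20,000 HIF-Luc-786-O cells per well. Activity scaled between DMSO maximum and no-cell baseline; four-parameter dose-response fits yielded IC50.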
Background: In a reporter assay the amount or activity of a reporter protein is the signal.

T2 sequence (Q99814 whole entry): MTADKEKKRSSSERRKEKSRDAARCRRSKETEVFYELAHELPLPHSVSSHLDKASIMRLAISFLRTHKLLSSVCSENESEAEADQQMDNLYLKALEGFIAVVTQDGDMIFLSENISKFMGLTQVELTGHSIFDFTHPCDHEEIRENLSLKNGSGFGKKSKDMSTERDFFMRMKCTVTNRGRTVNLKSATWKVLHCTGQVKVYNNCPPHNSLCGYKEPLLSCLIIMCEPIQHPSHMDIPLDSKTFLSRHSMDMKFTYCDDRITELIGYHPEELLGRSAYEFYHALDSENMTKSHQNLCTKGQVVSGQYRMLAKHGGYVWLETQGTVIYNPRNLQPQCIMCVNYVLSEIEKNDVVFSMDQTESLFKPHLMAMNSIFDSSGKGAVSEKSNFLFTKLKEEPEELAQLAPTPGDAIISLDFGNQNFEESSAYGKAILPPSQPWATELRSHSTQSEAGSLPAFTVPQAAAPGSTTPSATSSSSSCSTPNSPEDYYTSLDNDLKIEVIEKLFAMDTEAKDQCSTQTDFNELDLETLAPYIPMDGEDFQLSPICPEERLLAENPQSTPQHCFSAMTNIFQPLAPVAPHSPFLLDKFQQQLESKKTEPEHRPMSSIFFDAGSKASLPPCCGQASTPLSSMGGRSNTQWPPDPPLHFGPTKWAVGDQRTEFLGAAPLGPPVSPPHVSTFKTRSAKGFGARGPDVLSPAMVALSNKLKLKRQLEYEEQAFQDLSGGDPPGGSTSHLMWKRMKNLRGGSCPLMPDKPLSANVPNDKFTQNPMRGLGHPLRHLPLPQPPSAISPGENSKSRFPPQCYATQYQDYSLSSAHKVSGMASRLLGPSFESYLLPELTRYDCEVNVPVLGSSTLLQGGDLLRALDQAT
T1 sequence (Q99814 240-350): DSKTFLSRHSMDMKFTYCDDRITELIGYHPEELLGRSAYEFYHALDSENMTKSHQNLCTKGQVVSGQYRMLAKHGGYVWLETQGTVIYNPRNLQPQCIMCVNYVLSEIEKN

As for `N#Cc1cc(F)cc2c1C(c1ccc(C#N)c3c1CC(F)(F)[C@H]3O)CCC2` (mixture of isomers) [Example 141, 8-[(1S)-7-cyano-2,2-difluoro-1-hydroxy-1,3-dihydroinden-4-yl]-3-fluoro-5,6,7,8-tetrahydronaphthalene-1-carbonitrile], the half-maximal inhibitory concentration (IC50) (as a rule, the point on the concentration scale where inhibition reaches its midpoint) is under 100 nM in assay [1] (Table 2) and under 100 nM in assay [2] (Table 2, 20 hours incubation).
With `CS(=O)(=O)c1ccc(N2CCCc3cc(F)cc(C#N)c32)c2c1[C@H](O)C(F)(F)C2` (racemic) [Example 31], the IC50 in assay [1] (Table 1) lay in the range of 100 to 1000 nM; in assay [2] (Table 1, 20 hours incubation), 100 to 1000 nM.
For `Cc1ccc([C@H]2CC[C@H](F)c3cc(F)cc(C#N)c32)c2c1[C@H](O)C(F)(F)C2` [Example 225, (5S,8R)-8-[(1S)-2,2-difluoro-1-hydroxy-7-methyl-1,3-dihydroinden-4-yl]-3,5-difluoro-5,6,7,8-tetrahydronaphthalene-1-carbonitrile], in assay [2] (Table 3, 20 hours incubation), the IC50 is under 100 nM.
Same read-out and setting: under `CC(C)(O)c1ccc([C@H]2CC[C@H](F)c3cc(F)cc(C#N)c32)c2c1[C@H](O)C(F)(F)C2` [Example 226, (5S,8R)-8-[(1S)-2,2-difluoro-1-hydroxy-7-(2-hydroxypropan-2-yl)-1,3-dihydroinden-4-yl]-3,5-difluoro-5,6,7,8-tetrahydronaphthalene-1-carbonitrile] stands under 100 nM.
On the same count and under the same terms, under `Cc1ncccc1-c1ncc([C@H]2CC[C@H](F)c3cc(F)cc(C#N)c32)c2c1[C@H](O)[C@H](F)C2` [Example 227, (5S,8S)-3,5-difluoro-8-[(6R,7S)-6-fluoro-7-hydroxy-1-(2-methylpyridin-3-yl)-5H16H17H-cyclopenta[c]pyridin-4-yl]-5,6,7,8-tetrahydronaphthalene-1-carbonitrile] stands 100 to 1000 nM; under `N#Cc1cc(F)cc2c1[C@@H](c1ccc(-c3cccc4ncoc34)c3c1CC(F)(F)[C@H]3O)CC[C@@H]2F` [Example 228, (5S,8R)-8-[(1S)-7-(1,3-benzoxazol-7-yl)-2,2-difluoro-1-hydroxy-1,3-dihydroinden-4-yl]-3,5-difluoro-5,6,7,8-tetrahydronaphthalene-1-carbonitrile], under 100 nM.
`N#Cc1cc(F)cc2c1[C@@H](c1ccc(-c3cccc(F)c3N)c3c1CC(F)(F)[C@H]3O)CC[C@@H]2F` [Example 229, (5S,8R)-8-[(1S)-7-(2-amino-3-fluorophenyl)-2,2-difluoro-1-hydroxy-1,3-dihydroinden-4-yl]-3,5-difluoro-5,6,7,8-tetrahydronaphthalene-1-carbonitrile] yielded an IC50 in assay [2] (Table 3, 20 hours incubation) of under 100 nM.
`N#Cc1cc(F)cc2c1[C@@H](c1ccc(-c3cnc4c(N)cccn34)c3c1CC(F)(F)[C@H]3O)CC[C@@H]2F` [Example 230, (5S,8R)-8-[(1S)-7-(8-aminoimidazo[1,2-a]pyridin-3-yl)-2,2-difluoro-1-hydroxy-1,3-dihydroinden-4-yl]-3,5-difluoro-5,6,7,8-tetrahydronaphthalene-1-carbonitrile] showed an IC50 in assay [2] (Table 3, 20 hours incubation) of under 100 nM.
Same read-out and setting: with `Cc1nc2ccccn2c1-c1ccc([C@H]2CC[C@H](F)c3cc(F)cc(C#N)c32)c2c1[C@H](O)C(F)(F)C2` [Example 231, (5S,8R)-8-[(1S)-2,2-difluoro-1-hydroxy-7-(2-methylimidazo[1,2-a]pyridin-3-yl)-1,3-dihydroinden-4-yl]-3,5-difluoro-5,6,7,8-tetrahydronaphthalene-1-carbonitrile] the figure was 100 to 1000 nM; with `Cc1ncn(C)c1-c1ccc([C@H]2CC[C@H](F)c3cc(F)cc(C#N)c32)c2c1[C@H](O)C(F)(F)C2` [Example 232, (5S,8R)-8-[(1S)-7-(3,5-dimethylimidazol-4-yl)-2,2-difluoro-1-hydroxy-1,3-dihydroinden-4-yl]-3,5-difluoro-5,6,7,8-tetrahydronaphthalene-1-carbonitrile], under 100 nM; with `N#Cc1cc(F)cc2c1[C@@H](c1ccc(-c3cnc4ncccn34)c3c1CC(F)(F)[C@H]3O)CC[C@@H]2F` [Example 233, (5S,8R)-8-[(1S)-2,2-difluoro-1-hydroxy-7-imidazo[1,2-a]pyrimidin-3-yl-1,3-dihydroinden-4-yl]-3,5-difluoro-5,6,7,8-tetrahydronaphthalene-1-carbonitrile], 100 to 1000 nM.
On the same count and under the same terms, with `N#Cc1cc(F)cc2c1[C@@H](c1ccc(-c3cnc4cnccn34)c3c1CC(F)(F)[C@H]3O)CC[C@@H]2F` [Example 234, (5S,8R)-8-[(1S)-2,2-difluoro-1-hydroxy-7-imidazo[1,2-a]pyrazin-3-yl-1,3-dihydroinden-4-yl]-3,5-difluoro-5,6,7,8-tetrahydronaphthalene-1-carbonitrile] the figure was under 100 nM; with `N#Cc1cc(F)cc2c1[C@@H](c1ccc(-c3cc(F)ccc3N)c3c1CC(F)(F)[C@H]3O)CC[C@@H]2F` [Example 235, (5S,8R)-8-[(1S)-7-(2-amino-5-fluorophenyl)-2,2-difluoro-1-hydroxy-1,3-dihydroinden-4-yl]-3,5-difluoro-5,6,7,8-tetrahydronaphthalene-1-carbonitrile], under 100 nM; with `Cc1ncc(-c2ccc([C@H]3CC[C@H](F)c4cc(F)cc(C#N)c43)c3c2[C@H](O)C(F)(F)C3)n1C` [Example 236, (5S,8R)-8-[(1S)-7-(2,3-dimethylimidazol-4-yl)-2,2-difluoro-1-hydroxy-1,3-dihydroinden-4-yl]-3,5-difluoro-5,6,7,8-tetrahydronaphthalene-1-carbonitrile], under 100 nM.
Still for that read-out and setting: under `N#Cc1cc(F)cc2c1[C@@H](c1ccc(-c3cnc4cccnn34)c3c1CC(F)(F)[C@H]3O)CC[C@@H]2F` [Example 237, (5S,8R)-8-[(1S)-2,2-difluoro-1-hydroxy-7-imidazo[1,2-b]pyridazin-3-yl-1,3-dihydroinden-4-yl]-3,5-difluoro-5,6,7,8-tetrahydronaphthalene-1-carbonitrile] stands under 100 nM; under `Cn1ccnc1-c1ccc([C@H]2CC[C@H](F)c3cc(F)cc(C#N)c32)c2c1[C@H](O)C(F)(F)C2` [Example 238, (5S,8R)-8-[(1S)-2,2-difluoro-1-hydroxy-7-(1-methylimidazol-2-yl)-1,3-dihydroinden-4-yl]-3,5-difluoro-5,6,7,8-tetrahydronaphthalene-1-carbonitrile], 100 to 1000 nM.
As to `N#Cc1cc(F)cc2c1[C@@H](c1ccc(-c3cnc4ccccn34)c3c1CC(F)(F)[C@H]3O)CC[C@@H]2F` [Example 239, (5S,8R)-8-[(1S)-2,2-difluoro-1-hydroxy-7-imidazo[1,2-a]pyridin-3-yl-1,3-dihydroinden-4-yl]-3,5-difluoro-5,6,7,8-tetrahydronaphthalene-1-carbonitrile], the IC50 in assay [2] (Table 3, 20 hours incubation) is under 100 nM.
Still for that read-out and setting: under `N#Cc1cc(F)cc2c1[C@@H](c1ccc(-c3c[nH]c4ncccc34)c3c1CC(F)(F)[C@H]3O)CC[C@@H]2F` [Example 243, (5S,8R)-8-[(1S)-2,2-difluoro-1-hydroxy-7-{1H-pyrrolo[2,3-b]pyridin-3-yl}-2,3-dihydro-1H-inden-4-yl]-3,5-difluoro-5,6,7,8-tetrahydronaphthalene-1-carbonitrile] stands 100 to 1000 nM; under `Cc1cccnc1-c1ccc([C@H]2CC[C@H](F)c3cc(F)cc(C#N)c32)c2c1[C@H](O)C(F)(F)C2` [Example 244, (5S,8R)-8-[(1S)-2,2-difluoro-1-hydroxy-7-(3-methylpyridin-2-yl)-2,3-dihydro-1H-inden-4-yl]-3,5-difluoro-5,6,7,8-tetrahydronaphthalene-1-carbonitrile], under 100 nM.
As to `N#Cc1cc(F)cc2c1[C@@H](c1ccc(-c3cccn4ccnc34)c3c1CC(F)(F)[C@H]3O)CC[C@@H]2F` [Example 245, (5S,8R)-8-[(1S)-2,2-difluoro-1-hydroxy-7-{imidazo[1,2-a]pyridin-8-yl}-2,3-dihydro-1H-inden-4-yl]-3,5-difluoro-5,6,7,8-tetrahydronaphthalene-1-carbonitrile], in assay [2] (Table 3, 20 hours incubation), the IC50 was in the range of 100 to 1000 nM.
Still for that read-out and setting: with `CS(=O)(=O)c1ccc([C@H]2CC[C@H](F)c3cc(F)cc(C#N)c32)c2c1[C@H](O)[C@@](F)(C#N)C2` [Example 247, (5S,8R)-8-[(1S,2S)-2-cyano-2-fluoro-1-hydroxy-7-methylsulfonyl-1,3-dihydroinden-4-yl]-3,5-difluoro-5,6,7,8-tetrahydronaphthalene-1-carbonitrile] the figure was under 100 nM; with `CS(=O)(=O)c1ccc([C@H]2CC[C@H](F)c3cc(F)cc(C#N)c32)c2c1[C@H](O)[C@](F)(C#N)C2` [Example 248, (5S,8R)-8-[(1S,2R)-2-cyano-2-fluoro-1-hydroxy-7-methylsulfonyl-1,3-dihydroinden-4-yl]-3,5-difluoro-5,6,7,8-tetrahydronaphthalene-1-carbonitrile], 100 to 1000 nM.
